Like-named read-outs stand apart in the source and are kept apart here. Marks after values point to notes of the source that are not given here.
Key:
[1] = tested on: MELANOME B16; assay: Antitumour activity on B16 melanoma implanted i.m. in mice; format: in vivo, souris C57B1/6; conditions: 300 mg/kg i.p. j 1,5,9
From the text: (§1) Les tests d'activité antitumorale ont été conduits au sein du Screening and Pharmacology Group de l'E.O.R.T.C., implanté à l'Institut Mario Negri de Milan.
(§2) Ces essais ont été conduits soit en mono-injection à différentes doses au jour J+1 suivant la greffe de la tumeur, soit en poly-injections chroniques Q1D, soit en protocoles Q4D.
(§3) L'activité antitumorale est mesurée par le rapport T/C %, T (en jours) étant le durée moyenne de vie des souris traitées, C (en jours) étant la durée moyenne de vie des souris témoins.
(§4) L'effet thérapeutique est considéré comme significatif quant T/C % est supérieur ou égal à 125.

[2] = Solubility in water and physiological serum; format: physicochemical
From the text: La solubilité dans l'eau et dans le sérum physiologique est supérieure à 20 g/l ce qui est donc largement suffisant pour la réalisation de formes injectables.

[3] = tested on: LEUCEMIE L1210; assay: Antitumour activity on L1210 leukemia implanted i.p. in mice; format: in vivo, souris CD2F1; parameters: key to T/C (%): Δ: 2 souris mortes avant le 5ème jour, 1 souris au jour 6, 2 souris au jour 16 et la dernière était encore vivante après le 40ème jour
From the text: as §1, §2, §3, §4

[4] = Acute toxicity i.p. in mice (DLo, maximal non-lethal dose); format: in vivo, souris mâles Swiss ou CD2F1
Protocol: La toxicité de SPM a été déterminée sur des souris mâles Swiss ou CD2F1. La léthalité, quand elle existe, apparaît systématiquement aux jours 5 et 6 après l'adminstration par voie i.p. L'enregistrement de cette léthalité en fonction de la dose injectée permet de déduire la DLo qui est la dose maximale non léthale. La même valeur de DLo a été obtenue chez les Swiss et les CD2F1 : elle a été trouvée égale à 1 500 mg/kg. C'est là un résultat remarquable.

[5] = tested on: CARCINOME DU POUMON DE LEWIS; assay: Antitumour activity on Lewis lung carcinoma implanted i.m. in mice; format: in vivo, souris C57Bl/6
From the text: as §1, §2

[6] = 200 mg/kg i.p. x j 1,5,9, sacrifice jour 25

C(CCN1CCCNP12=NP(N1CC1)(N1CC1)=NP(N1CC1)(N1CC1)=N2)CN1CCCNP12=NP(N1CC1)(N1CC1)=NP(N1CC1)(N1CC1)=N2 (stereo not drawn) [SPM]
Volume moyen de la tumeur (cm^3 ± S.E.) ([1]; jour 24): 5,36±0,42* cm^3 | Volume moyen de la tumeur (cm^3 ± S.E.) ([1]; jour 27): 5,96±0,22 cm^3 | nombre de souris vivantes/total ([1]; jour 27): 6/10 | solubility ([2]; serum, sérum physiologique, read-out: solubilité dans le sérum physiologique): > 20 mg/mL | solubility ([2]; water, eau, read-out: solubilité dans l'eau): > 20 mg/mL | T/C (%) ([3]; Tableau 1, 25 mg/kg i.p. x j 1,5,9): 117% | T/C (%) ([3]; Tableau 1, 25 mg/kg i.p. x j 1-9): 131% | T/C (%) ([3]; Tableau 1, 50 mg/kg i.p. x j 1): 131% | T/C (%) ([3]; Tableau 1, 50 mg/kg i.p. x j 1,5,9): 131% | T/C (%) ([3]; Tableau 1, 50 mg/kg i.p. x j 1-9): 150% | T/C (%) ([3]; Tableau 1, 75 mg/kg i.p. x j 1-9): 140% | T/C (%) ([3]; Tableau 1, 100 mg/kg i.p. x j 1): 125% | T/C (%) ([3]; Tableau 1, 100 mg/kg i.p. x j 1,5,9): 137% | T/C (%) ([3]; Tableau 1, 100 mg/kg i.p. x j 1-9): 140% | T/C (%) ([3]; Tableau 1, 150 mg/kg i.p. x j 1-9): 170% | T/C (%) ([3]; Tableau 1, 200 mg/kg i.p. x j 1): 156% | T/C (%) ([3]; Tableau 1, 200 mg/kg i.p. x j 1,5,9): 159% | T/C (%) ([3]; Tableau 1, 300 mg/kg i.p. x j 1): 135% | T/C (%) ([3]; Tableau 1, 300 mg/kg i.p. x j 1,5,9): 164% | T/C (%) ([3]; Tableau 1, 400 mg/kg i.p. x j 1): 130% | T/C (%) ([3]; Tableau 1, 12,5 mg/kg i.p. x j 1-9): 112% | T/C (%) ([3]; Tableau 10, 25 mg/kg i.p. x j 1-9): 141% | T/C (%) ([3]; Tableau 10, 50 mg/kg i.p. x j 1,5,9): 123% | T/C (%) ([3]; Tableau 10, 50 mg/kg i.p. x j 1-9): 152% | T/C (%) ([3]; Tableau 10, 100 mg/kg i.p. x j 1): 135% | T/C (%) ([3]; Tableau 10, 100 mg/kg i.p. x j 1,5,9): 152% | T/C (%) ([3]; Tableau 10, 100 mg/kg i.p. x j 1-9): 170% | T/C (%) ([3]; Tableau 10, 150 mg/kg i.p. x j 1,5,9): 176% | T/C (%) ([3]; Tableau 10, 150 mg/kg i.p. x j 1-9): 182% | T/C (%) ([3]; Tableau 10, 200 mg/kg i.p. x j 1): 147% | T/C (%) ([3]; Tableau 10, 250 mg/kg i.p. x j 1,5,9): 194% | T/C (%) ([3]; Tableau 10, 300 mg/kg i.p. x j 1): 158% | T/C (%) ([3]; Tableau 10, 400 mg/kg i.p. x j 1): Δ | activité sur la leucémie L1210 (result in words) ([3]; quel que soit le protocole utilisé): relativement faible | DLo (dose maximale non léthale) ([4]; souris mâles CD2F1, i.p.): 1 500 mg/kg | DLo (dose maximale non léthale) ([4]; souris mâles Swiss, i.p.): 1 500 mg/kg | Volume de la tumeur (d^2.D/2)cm^3 ± S.E. ([5]; 200 mg/kg i.p. x j 1,5,9, jour 10): 0,53±0,08 cm^3 | Volume de la tumeur (d^2.D/2)cm^3 ± S.E. ([5]; 200 mg/kg i.p. x j 1,5,9, jour 13): 1,64±0,18 cm^3 | Volume de la tumeur (d^2.D/2)cm^3 ± S.E. ([5]; 200 mg/kg i.p. x j 1,5,9, jour 17): 3,49±0,15* cm^3 | Volume de la tumeur (d^2.D/2)cm^3 ± S.E. ([5]; 200 mg/kg i.p. x j 1,5,9, jour 20): 4,35±0,26* cm^3 | Volume de la tumeur (d^2.D/2)cm^3 ± S.E. ([5]; 200 mg/kg i.p. x j 1,5,9, jour 24): 6,08±0,31* cm^3 | Métastases Nombre moyen (N ± S.E.) [5, 6]: 14 ± 3,4 | Métastases Poids moyen (mg ± S.E.) [5, 6]: 127,3 ± 43,1 mg | Poids moyen de la tumeur (g ± S.E.) [5, 6]: 7,40 ± 0,33 g | activité sur le carcinome du poumon de Lewis (result in words) ([5]; souris C57B1/6): intéressante activité
